Results on 11 compounds are retold here after ChEMBL document CHEMBL2346618, “Synthesis and evaluation against hepatitis C virus of 7-deaza analogues of 2'-C-methyl-6-O-methyl guanosine nucleoside and L-Alanine ester phosphoramidates” (Bioorg Med Chem Lett, 2013).

The nature of series [1]: (§1) Cytotoxicity against human HuH7 cells. The class given is cell-based, Huh-7. Particulars: HuH7 cells; call rule not given here.
In another series the test system is Hepatitis C virus. In words: Antiviral activity against Hepatitis C virus assessed as inhibition of viral replication. The class given is functional, organism-based, Hepacivirus hominis.
Series [2] concerns Huh-7. In words: Prodrug activation in human HuH7 cell lysate assessed as formation of ((2R,3R,4R,5R)-5-(2-amino-4-methoxy-7H-pyrrolo[2,3-d]pyrimidin-7-yl)-3,4-dihydroxy-4-methyltetrahydrofuran-2-yl)methyl dihydrogen phosphate by NMR assay. The series is classed as cell-based.
Series [3] can be described thus: Prodrug activation in trizma buffer assessed as formation of (2S)-2-((((2R,3R,4R,5R)-5-(2-amino-4-methoxy-7H-pyrrolo[2,3-d]pyrimidin-7-yl)-3,4-dihydroxy-4-methyltetrahydrofuran-2-yl)methoxy)(hydroxy)phosphorylamino)propanoic acid by NMR assay in presence of carboxypeptidase Y.
The subject of series [4] is Huh-7. In words: Prodrug activation in human HuH7 cell lysate assessed as formation of ((2R,3R,4R,5R)-5-(2-amino-4-methoxy-7H-pyrrolo[2,3-d]pyrimidin-7-yl)-3,4-dihydroxy-4-methyltetrahydrofuran-2-yl)methyl dihydrogen phosphate after 48 hrs by NMR assay. The class given is cell-based. The following applies: huh-7, 48 h.
Series [5] in a line: Prodrug activation in phosphate buffer at pH 7.4 after 4 hrs by UV analysis in presence of calf adenosine deaminase. Particulars: pH 7.4, 4 h.
Series [6] relates to Huh-7. The series is described as §1. The series is classed as cell-based. The following applies: huh-7.

On to `COc1nc(N)nc2c1ncn2[C@@H]1O[C@H](COP(=O)(N[C@@H](C)C(=O)OCc2ccccc2)Oc2cccc3ccccc23)[C@@H](O)[C@@]1(C)O` (some centres undefined), for which the CC50 (commonly the concentration at which the toxic effect on the cells reaches its halfway point) in series [1] is 11 µM. Further, the EC50 (usually the midpoint of the concentration-response curve) in the series on Hepatitis C virus (Hepatitis C virus) came out at 0.02 µM.
Take `COc1nc(N)nc2c1ncn2[C@@H]1O[C@H](COP(=O)(N[C@@H](C)C(=O)OC2CCCCC2)Oc2cccc3ccccc23)[C@@H](O)[C@@]1(C)O` (some centres undefined): the CC50 in series [1] is 6 µM. Also, the EC50 in the series on Hepatitis C virus (Hepatitis C virus) turned out to be 0.03 µM.
For the compound `COc1nc(N)nc2c1ccn2[C@@H]1O[C@H](COP(=O)(O)O)[C@@H](O)[C@@]1(C)O`, the Drug metabolism result with Huh-7 [2] was “Active”.
For `COc1nc(N)nc2c1ccn2[C@@H]1O[C@H](COP(=O)(N[C@@H](C)C(=O)OCc2ccccc2)Oc2cccc3ccccc23)[C@@H](O)[C@@]1(C)O` (some centres undefined), in series [1], the CC50 stood at 27 µM. In the series on Hepatitis C virus (Hepatitis C virus), the EC50 came out at 27.3 µM.
Compound `COc1nc(N)nc2c1ccn2[C@@H]1O[C@H](COP(=O)(N[C@@H](C)C(=O)OCC(C)(C)C)Oc2cccc3ccccc23)[C@@H](O)[C@@]1(C)O` (some centres undefined) returned a CC50 in series [1] of 27 µM. Besides, the Drug metabolism entry in series [3] is “Active”; in the series with Huh-7 [4], “Not Active”. Also, the EC50 in the series on Hepatitis C virus (Hepatitis C virus) was 12.9 µM.
Regarding `COc1nc(N)nc2c1ccn2[C@@H]1O[C@H](CO)[C@@H](O)[C@@]1(C)O`, in series [5], the Stability result is given as “Stable”. Further, the CC50 in series [1] was over 100 µM. Further, the EC50 with Hepatitis C virus (Hepatitis C virus) was over 100 µM.
On to `COc1nc(N)nc2c1ccn2[C@@H]1O[C@H](COP(=O)(N[C@@H](C)C(=O)OC2CCCCC2)Oc2cccc3ccccc23)[C@@H](O)[C@@]1(C)O` (single isomer, unassigned; fast eluting), for which the CC50 in the series with Huh-7 [6] is 18 µM. The concentration for a half-maximal effect (EC50) in the series on Hepatitis C virus came out at 13.3 µM.
Compound `COc1nc(N)nc2c1ccn2[C@@H]1O[C@H](COP(=O)(N[C@@H](C)C(=O)OC2CCCCC2)Oc2cccc3ccccc23)[C@@H](O)[C@@]1(C)O` (single isomer, unassigned; slow eluting) came in with a CC50 in series [1] of 13 µM. Further, the concentration for a half-maximal effect (EC50) in the series on Hepatitis C virus (Hepatitis C virus) amounted to 8.9 µM.
The corresponding values for `COc1nc(N)nc2c1ncn2[C@@H]1O[C@H](CO)[C@@H](O)[C@@]1(C)O` [BETA-2'-C-METHYL-6-O-METHYL GUANOSINE] are over 100 µM and 3 µM.
With `C[C@@]1(O)[C@H](O)[C@@H](CO)O[C@H]1n1ccc2c(N)ncnc21` [BETA-2'-C-METHYL-7-DEAZA-ADENOSINE], the CC50 in series [1] was over 100 µM. In addition, in the series on Hepatitis C virus (Hepatitis C virus), the EC50 came to 0.25 µM.
The like results for `COc1nc(N)nc2c1ncn2[C@@H]1O[C@H](COP(=O)(N[C@@H](C)C(=O)OCC(C)(C)C)Oc2cccc3ccccc23)[C@@H](O)[C@@]1(C)O` (some centres undefined) [BMS-986094] were, in that order, 6 µM and 0.01 µM.
